These results are taken from patent US20210300940A1 (Merck Patent GmbH, priority 2018, published 2021).

One assay concerns the target T1, TLR8 (Homo sapiens, UniProt Q9NR97).
T1 construct: expressed in transfected cells; host or cells: HEK/293 reporter cells (NF-kB luciferase)
T1 sequence (Q9NR97 27-1041): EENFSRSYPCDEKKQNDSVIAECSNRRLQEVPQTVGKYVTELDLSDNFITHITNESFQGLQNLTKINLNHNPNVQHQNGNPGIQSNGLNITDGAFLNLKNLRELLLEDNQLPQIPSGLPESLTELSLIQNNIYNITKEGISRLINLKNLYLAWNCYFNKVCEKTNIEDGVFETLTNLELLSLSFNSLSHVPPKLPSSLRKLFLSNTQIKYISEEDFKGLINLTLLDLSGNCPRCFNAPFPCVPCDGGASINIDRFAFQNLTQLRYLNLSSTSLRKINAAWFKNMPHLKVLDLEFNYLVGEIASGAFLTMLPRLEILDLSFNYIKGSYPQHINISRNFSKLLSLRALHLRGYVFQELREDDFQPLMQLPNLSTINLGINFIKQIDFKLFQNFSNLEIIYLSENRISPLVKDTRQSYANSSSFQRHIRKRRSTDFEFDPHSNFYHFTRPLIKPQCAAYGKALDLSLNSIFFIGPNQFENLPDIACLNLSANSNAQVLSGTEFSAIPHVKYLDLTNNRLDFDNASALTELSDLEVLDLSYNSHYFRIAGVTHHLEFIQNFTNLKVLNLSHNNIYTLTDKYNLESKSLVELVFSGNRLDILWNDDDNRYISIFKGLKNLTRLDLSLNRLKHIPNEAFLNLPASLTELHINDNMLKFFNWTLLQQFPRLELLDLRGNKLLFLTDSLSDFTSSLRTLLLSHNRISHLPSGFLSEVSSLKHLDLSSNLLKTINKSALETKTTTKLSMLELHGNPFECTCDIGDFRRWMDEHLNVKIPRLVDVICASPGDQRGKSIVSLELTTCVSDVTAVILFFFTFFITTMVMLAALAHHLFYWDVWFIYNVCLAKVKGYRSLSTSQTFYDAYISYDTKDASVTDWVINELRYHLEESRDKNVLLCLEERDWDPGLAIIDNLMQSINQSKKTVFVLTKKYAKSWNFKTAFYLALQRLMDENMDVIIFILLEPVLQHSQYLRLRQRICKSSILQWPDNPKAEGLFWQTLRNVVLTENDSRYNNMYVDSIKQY
The assay is described as follows: HEK/293 TLR8 Cell Assay. The conditions noted are these: HEK cells, R848 agonist 30 uM final concentration, Steady-Glo readout; read-out: TLR8 potency. Type of assay: cell-based. The procedure: (§1) Example 390: HEK/293 TLR8 Cell Assay Into 384 CulturePlates (Corning 3765) was placed 5000 c/w of […] in 30 uL DMEM without Phenol red (gibco #31053-028) and 10% heat inactivated fetal bovine serum, 1% penicillin-streptomycin, and 2 mM L-Glutamine. The cells were incubated for 24 h at 37° C., 10% carbon dioxide and 90% relative humidity. 3 uL of controls, standards, and compounds were dispensed into wells, incubated for 30 min then 3 uL of R848 agonist (30 uM final concentration) was added in 20 mM Hepes. After incubation for 5 hours, they were allowed to stand at room temperature for 15 min. To this was added 10 uL of Steady-Glo substrate reagent and shake assay plate for 5 min at 1500 rpm. The assay plate was allowed to sit for 30 min at room temperature and then the plate was read on EnVision.

Another assay addresses T2, TLR7 (Homo sapiens, UniProt Q9NYK1).
T2 construct: expressed in transfected cells; host or cells: HEK/293 cells carrying TLR7 and an NF-kB luciferase reporter
T2 sequence (Q9NYK1 27-1049): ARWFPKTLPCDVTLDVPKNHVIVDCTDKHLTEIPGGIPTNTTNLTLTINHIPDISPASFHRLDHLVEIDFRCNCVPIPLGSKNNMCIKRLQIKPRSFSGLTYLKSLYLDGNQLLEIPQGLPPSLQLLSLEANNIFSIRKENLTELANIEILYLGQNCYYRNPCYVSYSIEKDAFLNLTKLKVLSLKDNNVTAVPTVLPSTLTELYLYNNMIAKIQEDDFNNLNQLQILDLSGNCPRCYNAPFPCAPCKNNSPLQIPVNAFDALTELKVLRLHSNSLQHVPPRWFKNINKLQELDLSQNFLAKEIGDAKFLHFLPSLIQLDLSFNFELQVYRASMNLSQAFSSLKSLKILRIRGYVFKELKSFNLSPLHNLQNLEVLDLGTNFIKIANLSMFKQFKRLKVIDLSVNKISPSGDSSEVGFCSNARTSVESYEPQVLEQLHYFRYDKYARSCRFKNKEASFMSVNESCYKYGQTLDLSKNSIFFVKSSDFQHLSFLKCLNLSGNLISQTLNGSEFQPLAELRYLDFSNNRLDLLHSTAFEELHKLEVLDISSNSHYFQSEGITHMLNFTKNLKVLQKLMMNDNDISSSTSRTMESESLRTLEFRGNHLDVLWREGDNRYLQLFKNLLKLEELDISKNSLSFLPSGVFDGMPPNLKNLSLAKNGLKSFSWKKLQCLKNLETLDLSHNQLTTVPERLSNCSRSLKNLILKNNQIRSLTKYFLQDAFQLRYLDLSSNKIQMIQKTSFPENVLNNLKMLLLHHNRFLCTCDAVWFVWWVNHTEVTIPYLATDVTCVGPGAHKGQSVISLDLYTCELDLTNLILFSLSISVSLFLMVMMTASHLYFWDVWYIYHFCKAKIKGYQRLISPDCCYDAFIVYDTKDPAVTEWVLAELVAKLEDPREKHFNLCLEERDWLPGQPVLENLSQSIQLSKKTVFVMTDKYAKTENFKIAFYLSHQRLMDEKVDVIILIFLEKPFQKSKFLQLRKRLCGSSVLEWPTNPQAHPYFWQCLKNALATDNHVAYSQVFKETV
Description: HEK/293 TLR7 Cell Assay. Type of assay: cell-based. The conditions noted are these: TLR7/NFKb HEK cells, R848 agonist 10 uM final concentration, Steady-Glo readout; read-out: TLR7 potency. The procedure:
as §1, with “389:” for “390:”, “TLR7” for “TLR8”, “[…]” for “1%”, “(10” for “(30”

Where only a bound is given, the exact number is not on record here.

With `C[C@H]1C[C@@H](OCCN2CCN(C)CC2)CN(c2ccc(C#N)c3nccnc23)C1` (racemic) [Example 1, 8-[(3S,5R)-3-methyl-5-[2-(4-methylpiperazin-1-yl)ethoxy]piperidin-1-yl]quinoxaline-5-carbonitrile], the IC50 on TLR8 and on TLR7 was below 75 nM in each case.
Regarding `C[C@H]1C[C@@H](OCCN2CCN(C)CC2)CN(c2ccc(C(F)(F)F)c3ncccc23)C1` (racemic) [Example 2, 5-[cis-3-methyl-5-[2-(4-methylpiperazin-1-yl)ethoxy]piperidin-1-yl]-8-(trifluoromethyl)quinoline], the IC50 at TLR8 and on TLR7 was below 75 nM throughout.
As for `C[C@H]1C[C@@H](OCCN2CCCCC2)CN(c2ccc(C(F)(F)F)c3ncccc23)C1` (racemic) [Example 3, 5-[cis-3-methyl-5-[2-(piperidin-1-yl)ethoxy]piperidin-1-yl]-8-(trifluoromethyl)quinolone], the IC50 at TLR8 was below 75 nM; at TLR7 it was above 150 nM.
With `C[C@H]1C[C@@H](n2ccnn2)CN(c2ccc(C#N)c3nccnc23)C1` (racemic) [Example 153, 8-[cis-3-methyl-5-(1H-1,2,3-triazol-1-yl)piperidin-1-yl]quinoxaline-5-carbonitrile], the IC50 on TLR8 is below 75 nM; on TLR7 it was above 150 nM.
Taken in the same sequence, the figures for `C[C@H]1C[C@@H](n2ccnn2)CN(c2ccc(C(F)(F)F)c3nccnc23)C1` (racemic) [Example 154, 5-[cis-3-methyl-5-(1H-1,2,3-triazol-1-yl)piperidin-1-yl]-8-(trifluoromethyl)quinoxaline] were 75 to 150 nM and above 150 nM.
For the compound `C[C@H]1C[C@@H](n2cccn2)CN(c2ccc(C(F)(F)F)c3nccnc23)C1` (racemic) [Example 155, 5-[cis-3-methyl-5-(1H-pyrazol-1-yl)piperidin-1-yl]-8-(trifluoromethyl)quinoxaline], the IC50 on TLR8 and on TLR7 was above 150 nM each time.
In the case of `N#Cc1ccc(N2C[C@H](n3cccn3)C[C@H](C(F)(F)F)C2)c2nccnc12` (racemic) [Example 156, 8-[cis-3-(1H-pyrazol-1-yl)-5-(trifluoromethyl)piperidin-1-yl]quinoxaline-5-carbonitrile], the IC50 at TLR8 and at TLR7 was above 150 nM in each case.
`Cc1nnc([C@H]2CN(c3ccc(C#N)c4nccnc34)C[C@@H](C)O2)o1` (racemic) [Example 212, 8-[(2R,6R)-2-Methyl-6-(5-methyl-[1,3,4]oxadiazol-2-yl)-morpholin-4-yl]-quinoxaline-5-carbonitrile]: the IC50 on TLR8 is below 75 nM; on TLR7, above 150 nM.
The matching figures for `Cc1noc([C@H]2CN(c3ccc(C#N)c4nccnc34)C[C@@H](C)O2)n1` (racemic) [Example 213, 8-[(2R,6R)-2-Methyl-6-(3-methyl-[1,2,4]oxadiazol-5-yl)-morpholin-4-yl]-quinoxaline-5-carbonitrile]: below 75 nM and above 150 nM.
Consider `C[C@@H]1CN(c2ccc(C#N)c3nccnc23)C[C@H](c2nc(C3CC3)no2)O1` (racemic) [Example 214, 8-[(2R,6R)-2-(3-Cyclopropyl-[1,2,4]oxadiazol-5-yl)-6-methyl-morpholin-4-yl]-quinoxaline-5-carbonitrile], for which the figures for the IC50 at TLR8 and at TLR7 were below 75 nM and 75 to 150 nM, respectively.
Taken in the same sequence, the figures for `CCN(CC)CCO[C@@H]1C[C@H](C)CN(c2ccc(C(F)(F)F)c3ncccc23)C1` (relative stereo) [Example 4, diethyl(2-[[cis-5-methyl-1-[8-(trifluoromethyl)quinolin-5-yl]piperidin-3-yl]oxy]ethyl)amine] were below 75 nM and above 150 nM.
With `CC(C(=O)N[C@@H]1C[C@H](C)CN(c2ccc(C#N)c3nccnc23)C1)N1CCN(C)CC1` (single isomer, unassigned) [Example 90], the IC50 at TLR8 and on TLR7 was below 75 nM in each case.
For `C[C@H]1C[C@@H](NC(=O)[C@H](C)N2CCN(C)CC2)CN(c2ccc(C#N)c3nccnc23)C1` (single isomer, unassigned) [Example 91], the IC50 on TLR8 and at TLR7 was below 75 nM in each case.
For the compound `CC(C(=O)N[C@@H]1C[C@H](C)CN(c2ccc(C(F)(F)F)c3ncccc23)C1)N1CCN(C)CC1` (single isomer, unassigned) [Example 92], the IC50 at TLR8 and on TLR7 was below 75 nM each time.
On to `C[C@H]1C[C@@H](NC(=O)[C@H](C)N2CCN(C)CC2)CN(c2ccc(C(F)(F)F)c3ncccc23)C1` (single isomer, unassigned) [Example 93], for which the IC50 at TLR8 and at TLR7 was below 75 nM each time.
As to `CC(C(=O)N[C@@H]1C[C@H](C(F)(F)F)CN(c2ccc(C(F)(F)F)c3ncccc23)C1)N1CCN(C)CC1` (single isomer, unassigned) [Example 94], the figures for the IC50 on TLR8 and at TLR7 were below 75 nM and 75 to 150 nM, respectively.
Taken in the same sequence, the figures for `C[C@@H](C(=O)N[C@@H]1C[C@H](C(F)(F)F)CN(c2ccc(C(F)(F)F)c3ncccc23)C1)N1CCN(C)CC1` (single isomer, unassigned) [Example 95] were below 75 nM and below 75 nM.
On to `CC(C(=O)N[C@@H]1C[C@H](C)CN(c2ccc(C#N)c3ncncc23)C1)N1CCN(C)CC1` (single isomer, unassigned) [Example 96], for which the figures for the IC50 at TLR8 and at TLR7 were above 150 nM and 75 to 150 nM, respectively.
Consider `CC(C(=O)N[C@@H]1C[C@H](C(F)(F)F)CN(c2ccc(C#N)c3nccnc23)C1)N1CCN(C)CC1` (single isomer, unassigned) [Example 98], for which the IC50 on TLR8 and on TLR7 was below 75 nM each time.
